Where “and” joins values, the source holds several entries; their conditions need not be identical. Equal entries are not always repeated. Structures can show the parent of a compound that is named as a salt. Where two headings read alike, the source gives them in different places.
Experiments:
[1] = the molecule shown is the open-chain precursor, crosslinker bond, 11-membered ring
[2] = target: T1, MCL-1 (Homo sapiens, UniProt Q07820, K194A/K197A/R201A); assay: Protein-protein interaction assay MCL-1/Noxa BH3 peptide, TR-FRET (MCL-1 assay, Assay 1); format: binding; details: MCL-1 Assay [M] (median), MBP-MCL-1 / Noxa BH3 peptide
T1 sequence (Q07820 173-321 K194A/K197A/R201A, looked up): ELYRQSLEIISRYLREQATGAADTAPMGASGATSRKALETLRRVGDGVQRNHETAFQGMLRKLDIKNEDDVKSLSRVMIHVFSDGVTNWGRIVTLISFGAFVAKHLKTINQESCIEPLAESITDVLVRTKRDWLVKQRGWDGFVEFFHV
Outline: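 Human MBP-fused MCL-1 (aa 173-321; 1 nM final) was pre-incubated 10 min at 22 °C with compound in pH 7 Tris buffer containing NaCl, KF, Tween-20, DTT and BGG. Displacement of biotinylated Noxa BH3 peptide was read by TR-FRET (anti-MBP-Eu cryptate/streptavidin-XL665) after 1 h at 22 °C plus overnight at 4 °C. IC50 came from four-parameter fits against DMSO controls.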

[3] = target: BCL-XL (Homo sapiens, UniProt Q07817); assay: Protein-protein interaction assay BCL-XL/Bad BH3 peptide, TR-FRET (BCL-XL assay, Assay 2); format: binding; details: His-BCL-XL / Bad BH3 peptide, median
BCL-XL, sequence (Q07817 1-212): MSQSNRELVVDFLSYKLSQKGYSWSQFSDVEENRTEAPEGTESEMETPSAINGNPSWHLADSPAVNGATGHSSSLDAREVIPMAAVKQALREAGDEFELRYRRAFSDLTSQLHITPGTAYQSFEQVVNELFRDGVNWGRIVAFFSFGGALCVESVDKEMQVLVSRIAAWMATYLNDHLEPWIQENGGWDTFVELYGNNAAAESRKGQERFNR
Method: Protein-Protein Interaction Assay: BCL-XL/Bad BH3 Peptide (BCL-XL Assay)
The dose-dependent inhibition by the compounds described in this invention of the interaction between BCL-XL and the BH3 domain of Bad (both human) was determined using a steady state binding competition assay with time-resolved fluorescence energy transfer (TR-FRET) readout. For that purpose BCL-XL (amino acids 1-212, C-terminal fused to a hexahistidine (6×His) tag (SEQ ID 3) and a synthetic Bad BH3-derived peptide of sequence Biotin-PEG2-PEG2-[sequence]-Nle-[sequence]-amide (SEQ ID 4) served as protein receptor and tracer ligand respectively. The recombinant BCL-XL protein (expressed in E. coli) was purchased from BPS Bioscience (San Diego, Calif., USA). The Bad BH3-derived peptide can be obtained from e.g. Biosyntan (Berlin, Germany).
For that, 100-fold concentrated DMSO solutions were prepared by serial dilutions (1:3.4) of a 2 mM stock solution in a clear, 384-well microtiter plate (Greiner Bio-One, Frickenhausen, Germany). From there, 50 nl were transferred in a dark test plate (Greiner Bio-One, Frickenhausen, Germany). The assay was initiated by addition of 2 μl of a 2,5-fold concentrated His-BCL-XL solution (usually for a 1 nM end concentration in 5 μl reaction volume) in aqueous assay buffer [50 mM Tris/HCl pH 7, 100 mM sodium chloride (NaCl), 50 mM potassium fluoride (KF), 0.005% Tween-20, 2 mM DTT, 0.1% bovine gamma globulin (BGG)] to the compounds in the assay plate. This was followed by a 10-minute incubation step at 22° C. for pre-equilibration of the putative complex between His-BCL-XL and the compounds.
The mixture was incubated in the dark for one hour at 22° C. and then overnight at 4° C. The formation of BCL-XL/Bad complexes was determined by measuring the resonance energy transfer of the anti-His- Eu-cryptate antibody to the streptavidin-XL665 present in the reaction. For that purpose, the fluorescence emission at 620 nm and 665 nm after excitation at 330-350 nm was measured in a TR-FRET measuring instrument, for instance a Rubystar or a Pherastar (both from BMG Lab Technologies, Offenburg, Germany) or a Viewlux (Perkin-Elmer). The ratio of the emission at 665 nm and at 622 nm was used as indicator of the amount of BCL-XL/Bad complexes present.
The resulting data (ratio) were normalized, taking 0% inhibition as the mean value of control measurements (usually 32 data points) where all reagents were included. In this case 50 nl DMSO were used instead of compounds. […] IC50 values were determined by regression analysis based on a 4 parameter equation (minimum, maximum, IC50, Hill; Y=Max+(Min−Max)/(1+(X/IC50)^Hill) using the Screener Software (Genedata).

[4] = target: BCL-2 (Homo sapiens, UniProt P10415); assay: Protein-protein interaction assay BCL-2/Bad BH3 peptide, TR-FRET (BCL-2 assay, Assay 3); format: binding; details: His-BCL-2 / Bad BH3 peptide, median
BCL-2, sequence (P10415 1-211): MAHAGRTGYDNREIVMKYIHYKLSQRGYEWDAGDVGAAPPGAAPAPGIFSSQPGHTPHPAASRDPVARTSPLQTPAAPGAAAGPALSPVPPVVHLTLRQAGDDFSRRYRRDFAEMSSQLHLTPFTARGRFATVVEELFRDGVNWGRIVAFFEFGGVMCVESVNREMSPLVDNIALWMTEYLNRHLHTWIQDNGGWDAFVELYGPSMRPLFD

[5] = test system: SUDHL5; assay: Induction of caspase-3/7 activity in SUDHL5 cells (Assay 4); format: cell-based; details: SUDHL5, 3 hours treatment, Caspase-Glo 3/7, median, read-out: Caspase SUDHL5 [M] (median)
Outline: (§1)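 DLBCL lines SUDHL5 and SUDHL10 were treated with compound for 3 h at 37 °C. Caspase-3/7 activity was then read by Caspase-Glo 3/7 luminescence after 1 h at 37 °C. Medium-only background was subtracted and values were normalized to the mean of DMSO-treated cells.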

[6] = test system: SUDHL10; assay: Induction of caspase-3/7 activity in SUDHL10 cells (Assay 4); format: cell-based; details: SUDHL10, 3 hours treatment, Caspase-Glo 3/7, median, read-out: Caspase SUDHL10 [M] (median)
Outline: as §1

[7] = test system: SUDHL5; assay: Induction of cytotoxicity in SUDHL5 cells, CellTiter-Glo (Assay 6); format: cell-based; details: SUDHL5, 5 hours incubation, median, read-out: Cytotox SUDHL5 [M] (median)
Outline: (§2)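 Cells plated and held overnight at 37 °C, then compound-treated for 5 h at 37 °C. Viability measured by CellTiter-Glo luminescence after 15 min shaking at room temperature; cell-free medium as background control.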

[8] = test system: SUDHL10; assay: Induction of cytotoxicity in SUDHL10 cells, CellTiter-Glo (Assay 6); format: cell-based; details: SUDHL10, 5 hours incubation, median, read-out: Cytotox SUDHL10 [M] (median)
Outline: as §2

[9] = test system: SUDHL5; assay: Anti-proliferative effect in SUDHL5 cells, CellTiter-Glo (Assay 7); format: cell-based; details: SUDHL5, 72 hours incubation, CellTiter-Glo, median, read-out: Antiproli SUDHL5 [M] (median)
Outline: (§3)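 Cells plated and incubated overnight at 37° C, then exposed to compound for 72 hours. Viability read as CellTiter-Glo luminescence, with a day 0 plate as time-zero reference. IC50 calculated with day 0 values and DMSO control values as references.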

[10] = test system: SUDHL10; assay: Anti-proliferative effect in SUDHL10 cells, CellTiter-Glo (Assay 7); format: cell-based; details: Homo sapiens, SU-DHL10, SUDHL10, 72 hours incubation, median, read-out: Antiproli SUDHL10 [M] (median)
Method: Assessment of the Anti-Proliferative Effect of Compounds in Different Cell Lines
The impact of compounds on the proliferation of different cell lines was assessed using the CellTiter-Glo® Luminescent Cell Viability reagent from Promega (G7573).
In parallel, cells were plated in a reference (day 0) plate for time zero determination. Cells were incubated in a humidified incubator at 37° C. overnight.
Rim wells were excluded. The cells were incubated for 72 hours in a humidified incubator at 37° C. The day 0 plate was measured by adding 30 μL/well of CTG solution (CellTiter-Glo® Luminescent Cell Viability reagent, Promega G7573) to time zero wells in the reference plate followed by a 10 minutes incubation and luminescence reading at 0.1 ms. using the PHERAstar FS microplate reader (BMG Labtech).
After 72 hours incubation, the treated plates were measured in the same way as the day 0 plate mentioned above. The Bella DRC Master Sheet was used to calculate IC50s, with CI=day 0 values and C0=DMSO control values.

[11] = test system: AMO-1; assay: Anti-proliferative effect in AMO-1 cells, CellTiter-Glo (Assay 7); format: cell-based; details: AMO-1, 72 hours incubation, CellTiter-Glo, several values per example, read-out: Antiproli AMO-1
Outline: as §3

[12] = test system: A2780; assay: Anti-proliferative effect in A2780 cells, CellTiter-Glo (Assay 7); format: cell-based; details: Homo sapiens, A2780, 72 h, A2780, 72 hours incubation, CellTiter-Glo; several values per example; read-out: Antiproli A2780
Outline: as §3

[13] = test system: MV-4-11; assay: Anti-proliferative effect in MV-4-11 cells, CellTiter-Glo (Assay 7); format: cell-based; details: MV-4-11, 72 hours incubation, CellTiter-Glo, several values per example, read-out: Antiproli MV-4-11
Outline: as §3

[14] = target: T1, MCL-1; assay: Protein-compound interaction assay, surface plasmon resonance (SPR assay, Assay 8); format: binding; details: geometric mean; for Kd: KD [M]
Source text: Protein-Compound Interaction Assay (SPR Assay)
The ability of the compounds described in this invention to bind to MCL-1 may be determined using surface plasmon resonance (SPR). This allows for the quantification of binding in terms of the equilibrium dissociation constant (KD [M]), as well as association and dissociation rate constants (kon [1/M 1/s] and koff [1/s], respectively). The measurements may be performed using Biacore® T200 or Biacore® S200 instruments (GE Healthcare).
Briefly, carboxymethylated dextran biosensor chips (Series S Sensor Chip CM5, GE Healthcare) were activated with 1-ethyl-3-(3-dimethylaminopropyl)-carbodiimide hydrochloride (EDC) and N-hydroxysuccinimide (NHS) according to the supplier's instructions. MBP-MCL-1 was diluted in 1×PBS-P+ (GE Healthcare) and injected on the activated chip surface. Subsequently, a solution of 1 M ethanolamine-HCl (GE Healthcare) was injected to block unreacted groups, resulting in approximately 400-2500 response units (RU) of immobilized protein. A reference surface was generated by treatment with NHS-EDC and ethanolamine-HCl. […] Compounds were injected for 60 s followed by a dissociation time of up to 1000 s.
The double-referenced sensorgrams were fit to a simple reversible Langmuir 1:1 reaction mechanism as implemented in the Biacore® T200 and S200 evaluation software (T200 evaluation software version 2.0 and S200 evaluation software version 1.0, GE Healthcare).

[15] = SPR, immobilized MBP-MCL-1, 25° C.

Compound | IC50 [2] [M] | IC50 [3] [µM] | IC50 [4] [µM] | EC50 ([5]; Homo sapiens, SU-DHL-5, 3 h) [M] | EC50 ([6]; Homo sapiens, SU-DHL10, 3 h) [M] | IC50 ([9]; Homo sapiens, SU-DHL-5, 72 h) [M] | IC50 [10] [M] | IC50 [11] | IC50 ([11]; Homo sapiens, AMO1, 72 h) [µM] | other results
CCOC(=O)c1[nH]c2c(-c3c(CC)nn(C)c3CO)c(Cl)ccc2c1CCCOc1cccc2cc(F)ccc12 | – | – | – | – | – | – | – | – | – | ring closure, isolated yield ([1]; 1,2-bis(bromomethyl)benzene/Cs2CO3, THF/MeCN, 35.9 mM, 50.0 °C): 62%
CCOC(=O)c1[nH]c2c(-c3c(CO)nn(C)c3C)c(Cl)ccc2c1CCCOc1cccc2ccccc12 | – | – | – | – | – | – | – | – | – | ring closure, isolated yield ([1]; 2,3-bis(chloromethyl)pyrazine/Cs2CO3/NaI, MeCN, 167.0 mM, 70.0 °C): 13%; ring closure, isolated yield ([1]; 2,3-bis(chloromethyl)pyridine HCl/Cs2CO3/NaI, MeCN, 94.0 mM, 75.0 °C): 10%
CCOC(=O)c1[nH]c2c(-c3c(CO)nn(C)c3CC)c(Cl)ccc2c1CCCOc1cccc2cc(F)ccc12 | – | – | – | – | – | – | – | – | – | ring closure, isolated yield ([1]; 1,2-bis(bromomethyl)benzene/Cs2CO3, THF/MeCN, 36.4 mM, 50.0 °C): 94%
CCc1c2c(nn1C)COCc1ccccc1Cn1c(C(=O)O)c(CCCOc3cccc4c3CCC4)c3ccc(F)c-2c31 (racemic) [Example 78, (rac)-1-(3-((2,3-Dihydro-1H-inden-4-yl)oxy)propyl)-14-ethyl-15-fluoro-13-methyl-4,9,11,13-tetrahydrobenzo[3,4]pyrazolo[4′,3′:9,10][1]oxa[6]azacycloundecino[8,7,6-hi]indole-2-carboxylic] | 1.9e-09 | > 20 | > 20 | 2.1e-06 | 5.2e-06 | 3.3e-06 | 1.9e-06 | 6.82 µM | 6.61 | IC50 ([7]; Homo sapiens, SU-DHL-5, 5 h): 2.1e-06 M; IC50 ([8]; Homo sapiens, SU-DHL10, 5 h): 3.7e-06 M; IC50 [12]: 5.04 µM
Cc1nn(C)c2c1-c1c(F)ccc3c(CCCOc4cccc5cc(F)ccc45)c(C(=O)O)n(c13)Cc1ccccc1COC2 (racemic) [Example 81, (rac)-15-Fluoro-1-(3-((6-fluoronaphthalen-1-yl)oxy)propyl)-12,14-dimethyl-4,9,11,12-tetrahydrobenzo[3,4]pyrazolo[4′,3′:9,10][1]oxa[6]azacycloundecino[8,7,6-hi]indole-2-carboxylic Acid] | 4.6e-09 | > 20 | 18 | 2.1e-06 | 5.2e-06 | 3.3e-06 | 3e-06 | 7.08 µM and 4.13 µM | 6.52 | IC50 ([7]; Homo sapiens, SU-DHL-5, 5 h): 2.5e-06 M; IC50 ([8]; Homo sapiens, SU-DHL10, 5 h): 4e-06 M; IC50 ([13]; Homo sapiens, MV4-11, 72 h): 7.69 µM; IC50 [13]: 7.82 µM and 6.41 µM
CCc1nn(C)c2c1-c1c(F)ccc3c(CCCOc4cccc5cc(F)ccc45)c(C(=O)O)n(c13)Cc1ccccc1COC2 (racemic) [Example 90, (rac)-14-Ethyl-15-fluoro-1-(3-((6-fluoronaphthalen-1-yl)oxy)propyl)-12-methyl-4,9,11,12-tetrahydrobenzo[3,4]pyrazolo[4′,3′:9,10][1,6]oxaazacycloundecino[8,7,6-hi]indole-2-carboxylic Acid] | 3.2e-09 | > 20 | 17.8 | 1.4e-06 | 6.6e-06 | 2e-06 | 2.1e-06 | 10.3 µM and 6.91 µM | 5.58 | IC50 ([13]; Homo sapiens, MV4-11, 72 h): 4.98 µM; IC50 [13]: 8.53 µM and 6.99 µM
Cc1c2c(nn1C)COCc1ccccc1Cn1c(C(=O)O)c(CCCOc3cccc4ccccc34)c3cccc-2c31 (single isomer, unassigned; enantiomer 1) [Example 2, 4,5-Dimethyl-17-[3-(naphthalen-1-yloxy)propyl]-5,7,9,14-tetrahydroindolo[7,1-fg]pyrazolo[3,4-d][2,8]benzoxazacycloundecine-16-carboxylic acid-N-ethylethanamine Salt (Enantiomer 1)] | 2.3e-09 | > 20 | > 20 | – | – | – | – | – | – | EC50 [5]: 2e-06 M; EC50 [6]: 7.7e-06 M; IC50 [7]: 2.3e-06 M; IC50 [8]: 7.3e-06 M; IC50 [9]: 2.9e-06 M; Kd [14, 15]: 6e-09 M; kon [1/M 1/s] [14, 15]: 1.1E7 1/M 1/s; koff ([14]; read-out: koff [1/s], SPR, immobilized MBP-MCL-1, 25° C.): 0.068 s⁻¹
Cc1c2c(nn1C)COCc1ccccc1Cn1c(C(=O)O)c(CCCOc3cccc4ccccc34)c3cccc-2c31 (single isomer, unassigned; enantiomer 2) [Example 3, 4,5-Dimethyl-17-[3-(naphthalen-1-yloxy)propyl]-5,7,9,14-tetrahydroindolo[7,1-fg]pyrazolo[3,4-d][2,8]benzoxazacycloundecine-16-carboxylic acid-N-ethylethanamine Salt (Enantiomer 2)] | 2.7e-08 | – | – | – | – | – | – | – | – | EC50 [5]: > 1.2e-05 M; EC50 [6]: > 3.3e-05 M; IC50 [7]: 8.3e-06 M; IC50 [8]: > 3.3e-05 M; IC50 [9]: 7.7e-06 M; Kd [14, 15]: 1.7e-07 M; koff [14, 15]: 0.046 s⁻¹; kon [1/M 1/s] [14, 15]: 2.8E5 1/M 1/s

— patent US20210253598A1, “ARYL ANNULATED MACROCYCLIC INDOLE DERIVATIVES” (priority 2017, published 2021)
